Laboratory results as given in patent US7759345B2, “Antitumoral derivatives of ET-743” (priority 2001, dated 2010).
Where two headings read alike, the source gives them in different places.

Experiments:
[1] = system: SK-BR-3; assay: Inhibition of cells growth by colorimetric assay (SRB), SK-BR-3; assay type: cell-based; conditions: SRB, 48 hours exposure; for GI50 / CC50: Homo sapiens, SK-BR-3, 48 h
Summary of the method: (§1)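 First, cells were plated at 5×10^3 per well and left 18 h to attach. Next, compound was added over 10 to 10^−8 μg/ml for 48 h. Finally, cells were TCA-fixed, SRB-stained and absorbance read at 490 nm.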

[2] = system: LoVo-Dox; assay: Inhibition of cells growth by colorimetric assay (SRB), LoVo-Dox; assay type: cell-based; conditions: SRB, 48 hours exposure; for GI50 / CC50: Homo sapiens, 48 h
Summary of the method: as §1

[3] = system: SK-MEL-28; assay: Inhibition of cells growth by colorimetric assay (SRB), SK-MEL-28; assay type: cell-based; conditions: SRB, 48 hours exposure; for GI50 / CC50: Homo sapiens, SK-MEL-28, 48 h
Summary of the method: as §1

[4] = system: IGROV-1; assay: Inhibition of cells growth by colorimetric assay (SRB), IGROV-1; assay type: cell-based; conditions: SRB, 48 hours exposure; for GI50 / CC50: Homo sapiens, IGROV-1, 48 h
Summary of the method: as §1

[5] = system: K-562; assay: Inhibition of cells growth by colorimetric assay (SRB), K-562; assay type: cell-based; conditions: SRB, 48 hours exposure; for GI50 / LC50 (50% cell killing): Homo sapiens, K562, 48 h
Summary of the method: as §1

[6] = system: A-549; assay: Inhibition of cells growth by colorimetric assay (SRB), A-549; assay type: cell-based; conditions: SRB, 48 hours exposure; for GI50 / LC50 (concentration for 50% cell killing): Homo sapiens, A549, 48 h; for TGI A-549 / GI50: A-549; for GI50: read-out: GI50 A-549
Summary of the method: as §1

[7] = system: Liver
Source text: (§2) Toxicity was asssessed by the methods reported in Toxicology in Vitro, 15 (2001) 571-577, J. Luber Narod et al.: “Evaluation of the use of in vitro methodolodies as tools for screening new compounds for potential in vivo toxicity”.

[8] = system: IGROV-ET; assay: Inhibition of cells growth by colorimetric assay (SRB), IGROV-ET; assay type: cell-based; conditions: SRB, 48 hours exposure; for GI50 / CC50: Homo sapiens, 48 h
Summary of the method: as §1

[9] = system: HMEC1; assay: Inhibition of cells growth by colorimetric assay (SRB), HMEC1; assay type: cell-based; conditions: SRB, 48 hours exposure; for GI50 / LC50: Homo sapiens, HMEC-1, 48 h
Summary of the method: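 Using sulforhodamine B, cell growth and viability are quantified after a 48 h drug exposure of cells maintained in RPMI 1640/10% FBS at 37 °C, 5% CO2. Concentrations span 10 to 10^−8 μg/ml; optical density is read at 490 nm.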

[10] = system: SK-OV-3; assay: Inhibition of cells growth by colorimetric assay (SRB), SK-OV-3; assay type: cell-based; conditions: SRB, 48 hours exposure; for GI50 / LC50: Homo sapiens, SK-OV-3, 48 h
Summary of the method: as §1

[11] = system: PANC-1; assay: Inhibition of cells growth by colorimetric assay (SRB), PANC-1; assay type: cell-based; conditions: SRB, 48 hours exposure; for GI50 / LC50 (concentration for 50% net cell kill): Homo sapiens, PANC-1, 48 h
Summary of the method: as §1

[12] = system: DU-145; assay: Inhibition of cells growth by colorimetric assay (SRB), DU-145; assay type: cell-based; conditions: SRB, 48 hours exposure; for GI50 / CC50: Homo sapiens, DU-145, 48 h
Summary of the method: as §1

[13] = system: HT-29; assay: Inhibition of cells growth by colorimetric assay (SRB), HT-29; assay type: cell-based; conditions: SRB, 48 hours exposure; for GI50 / LC50 (concentration for 50% cell killing): Homo sapiens, HT-29, 48 h
Summary of the method: as §1

[14] = system: LNCaP; assay: Inhibition of cells growth by colorimetric assay (SRB), LNCaP; assay type: cell-based; conditions: SRB, 48 hours exposure; for GI50 / CC50: Homo sapiens
Summary of the method: as §1

[15] = system: LoVo; assay: Inhibition of cells growth by colorimetric assay (SRB), LoVo; assay type: cell-based; conditions: SRB, 48 hours exposure; for GI50 / LC50 (concentration for 50% cell killing): Homo sapiens, LoVo, 48 h
Summary of the method: as §1

[16] = system: Heart
Source text: as §2

[17] = system: Skeletal
Source text: as §2

[18] = system: Kidney
Source text: as §2

[19] = system: Myelo
Source text: as §2

COc1cc2c(cc1OC)[C@@]1(CS[C@@H]3c4c(OC(C)=O)c(C)c5c(c4[C@H](COC1=O)N1C3[C@H]3c4c(cc(C)c(OC)c4OC)C[C@@H]([C@@H]1O)N3C)OCO5)NCC2 (stereo partly shown) [Compound 87]
GI50 ([1]; SK-BR3, read-out: SK-BR3 GI50): 16.5 nM | CC50 ([1]; read-out: SK-BR3 LC50, SK-BR3): 101 nM | SK-BR3 TGI ([1]; SK-BR3): 4.08E-08 | GI50 ([2]; LOVO-DOX, read-out: LOVO-DOX GI50): 38.7 nM | CC50 ([2]; read-out: LOVO-DOX LC50, LOVO-DOX): 12700 nM | LOVO-DOX TGI ([2]; LOVO-DOX): 1.42E-07 | GI50 ([3]; MEL-28, read-out: MEL-28 GI50): 19.2 nM | CC50 ([3]; read-out: MEL-28 LC50, MEL-28): 109 nM | MEL-28 TGI ([3]; MEL-28): 4.57E-08 | GI50 ([4]; IGROV, read-out: IGROV GI50): 4.8 nM | CC50 ([4]; read-out: IGROV LC50, IGROV): 80.4 nM | IGROV TGI ([4]; IGROV): 1.63E-08 | GI50 ([5]; K-562, read-out: K-562 GI50): 0.871 nM | LC50 (50% cell killing) ([5]; read-out: K-562 LC50, K-562): 7.15 nM | K-562 TGI ([5]; K-562): 2.96E-09 | TGI A-549 [6]: 4.77E-08 | GI50 [6]: 23.8 nM | LC50 (concentration for 50% cell killing) ([6]; read-out: A-549 LC50, A-549): 95.8 nM | Toxicity Data Liver [7]: 6.18E-08 | GI50 ([8]; IGROV-ET, read-out: IGROV-ET GI50): 28.4 nM | CC50 ([8]; read-out: IGROV-ET LC50, IGROV-ET): 5840 nM | IGROV-ET TGI ([8]; IGROV-ET): 7.77E-08 | HMEC-1 TGI ([9]; HMEC-1): 9.65E-08 | GI50 ([9]; HMEC-1, read-out: HMEC-1 GI50): 16.7 nM | LC50 ([9]; read-out: HMEC-1 LC50, HMEC-1): 12700 nM | GI50 ([10]; SK-OV3, read-out: SK-OV3 GI50): 21.6 nM | LC50 ([10]; read-out: SK-OV3 LC50, SK-OV3): 8990 nM | SK-OV3 TGI ([10]; SK-OV3): 6.56E-08 | GI50 ([11]; PANC-1, read-out: PANC-1 GI50): 25.3 nM | LC50 (concentration for 50% net cell kill) ([11]; read-out: PANC-1 LC50, PANC-1): 876 nM | PANC-1 TGI ([11]; PANC-1): 7.39E-08 | DU-145 TGI ([12]; DU-145): 5.22E-08 | GI50 ([12]; DU-145, read-out: DU-145 GI50): 13.5 nM | CC50 ([12]; read-out: DU-145 LC50, DU-145): 180 nM | HT-29 TGI ([13]; HT-29): 1.12E-07 | GI50 ([13]; HT-29, read-out: HT-29 GI50): 24.4 nM | LC50 (concentration for 50% cell killing) ([13]; read-out: HT-29 LC50, HT-29): 380 nM | GI50 ([14]; LNCaP, 48 h, read-out: LNCAP GI50, LNCAP): 4.73 nM | CC50 ([14]; LNCaP, 48 h, read-out: LNCAP LC50, LNCAP): 40.5 nM | LNCAP TGI ([14]; LNCAP): 1.12E-08 | GI50 ([15]; LOVO, read-out: LOVO GI50): 22.7 nM | LC50 (concentration for 50% cell killing) ([15]; read-out: LOVO LC50, LOVO): 123 nM | LOVO TGI ([15]; LOVO): 5.27E-08 | Toxicity Data Heart [16]: 3.60E-08 | Toxicity Data Skeletal [17]: 2.00E-07 | Toxicity Data Kidney [18]: 8.09E-08 | Toxicity Data Myelo [19]: 2.44E-07

COc1cc2c(cc1OC(=O)c1cc3ccccc3oc1=O)CCN[C@]21CS[C@@H]2c3c(OC(C)=O)c(C)c4c(c3[C@H](COC1=O)N1C2[C@H]2c3c(cc(C)c(OC)c3O)C[C@@H]([C@@H]1O)N2C)OCO4 (stereo partly shown) [Compound 76]
GI50 ([1]; SK-BR3, read-out: GI50 SK-BR3): 0.337 nM | CC50 ([1]; read-out: LC50 SK-BR3, SK-BR3): 6.17 nM | TGI SK-BR3 ([1]; SK-BR3): 1.24E-09 | GI50 ([2]; LOVO-DOX, read-out: GI50 LOVO-DOX): 13.9 nM | CC50 ([2]; read-out: LC50 LOVO-DOX, LOVO-DOX): 107 nM | TGI LOVO-DOX ([2]; LOVO-DOX): 4.70E-08 | GI50 ([3]; MEL-28, read-out: GI50 MEL-28): 0.622 nM | CC50 ([3]; read-out: LC50 MEL-28, MEL-28): 8.28 nM | TGI MEL-28 ([3]; MEL-28): 2.51E-09 | GI50 ([4]; IGROV, read-out: GI50 IGROV): 0.192 nM | CC50 ([4]; read-out: LC50 IGROV, IGROV): 1.66 nM | TGI IGROV ([4]; IGROV): 4.56E-10 | GI50 ([5]; K-562, read-out: GI50 K-562): 0.00278 nM | LC50 (50% cell killing) ([5]; read-out: LC50 K-562, K-562): 0.351 nM | TGI K-562 ([5]; K-562): 3.78E-11 | TGI A-549 [6]: 4.31E-09 | GI50 [6]: 2.06 nM | LC50 (concentration for 50% cell killing) ([6]; read-out: LC50 A-549, A-549): 9.07 nM | Toxicity Data Liver [7]: 1.35E-08 | GI50 ([8]; IGROV-ET, read-out: GI50 IGROV-ET): 1.52 nM | CC50 ([8]; read-out: LC50 IGROV-ET, IGROV-ET): 21 nM | TGI IGROV-ET ([8]; IGROV-ET): 3.92E-09 | TGI HMEC-1 ([9]; HMEC-1): 6.55E-09 | GI50 ([9]; HMEC-1, read-out: GI50 HMEC-1): 1.83 nM | LC50 ([9]; read-out: LC50 HMEC-1, HMEC-1): 186 nM | GI50 ([10]; SK-OV3, read-out: GI50 SK-OV3): 0.293 nM | LC50 ([10]; read-out: LC50 SK-OV3, SK-OV3): 4810 nM | TGI SK-OV3 ([10]; SK-OV3): 8.93E-10 | GI50 ([11]; PANC-1, read-out: GI50 PANC-1): 1.22 nM | LC50 (concentration for 50% net cell kill) ([11]; read-out: LC50 PANC-1, PANC-1): 44.1 nM | TGI PANC-1 ([11]; PANC-1): 4.68E-09 | TGI DU-145 ([12]; DU-145): 6.16E-10 | GI50 ([12]; DU-145, read-out: GI50 DU-145): 0.249 nM | CC50 ([12]; read-out: LC50 DU-145, DU-145): 2140 nM | TGI HT-29 ([13]; HT-29): 6.18E-09 | GI50 ([13]; HT-29, read-out: GI50 HT-29): 1.28 nM | LC50 (concentration for 50% cell killing) ([13]; read-out: LC50 HT-29, HT-29): 4520 nM | CC50 ([14]; LNCaP, 48 h, read-out: LC50 LNCAP, LNCAP): 0.891 nM | GI50 ([14]; LNCAP, read-out: GI50 LNCAP): 0.217 nM | TGI LNCAP ([14]; LNCAP): 4.40E-10 | GI50 ([15]; LOVO, read-out: GI50 LOVO): 1.03 nM | LC50 (concentration for 50% cell killing) ([15]; read-out: LC50 LOVO, LOVO): 10.8 nM | TGI LOVO ([15]; LOVO): 3.30E-09 | Toxicity Data Heart [16]: 1.62E-08 | Toxicity Data Skeletal [17]: 2.15E-09 | Toxicity Data Kidney [18]: 3.20E-09 | Toxicity Data Myelo [19]: 8.19E-09
